Assay: method code SF-AS, from DOI: 10.1016/0223-5234(92)90053-4

Row | SMILES | logP
1 | CN(CCO)CCCC(=O)c1cccs1 | 3.29
2 | Cc1ccsc1C(=O)CCCNCCO | 3
3 | CC(O)CNCCCC(=O)c1cccs1 (configuration not stated) | 2.73
4 | O=C(CCCNCCO)C1CCCCC1 | 3.96
5 | Cc1cc(C)c(C(=O)CCCNCCO)c(C)c1 | 3.16
6 | O=C(CCCNCCO)c1cccs1 | 2.89
7 | NCCNCCCC(=O)c1cccs1 | 2.58

Further lines, results first:

Row | logP | SMILES
8 | 3.79 | CCN(CC)CCCC(=O)c1ccccc1
9 | 3.85 | CCc1ccccc1C(=O)CCCNCCO
10 | 3.28 | CC(O)CNCCCC(=O)c1ccccc1 (configuration not stated)
11 | 3.07 | CN(CCO)CCCC(=O)Cc1ccccc1
12 | 3.03 | O=C(CCCNCCO)Cc1ccccc1
13 | 2.41 | O=C(CCCNCCO)c1ccccc1
14 | 2.4 | CN(CCO)CCCC(=O)c1ccccc1
15 | 2.53 | CC(O)CNCCCC(=O)Cc1ccccc1 (configuration not stated)
16 | 3.61 | Cc1ccccc1C(=O)CCCNCCO
17 | 2.74 | NCCNCCCC(=O)c1ccccc1

Reference: the SangsterLogP compilation
